Laboratory results reported in PMC3973950, “Synthesis of 5-arylidine amino-1,3,4-thiadiazol-2-[(N-substituted benzyol)]sulphonamides endowed with potent antioxidants and anticancer activity induces growth inhibition in HEK293, BT474 and NCI-H226 cells” (Medicinal Chemistry Research, 2013).

Legend:
[1] = In vitro cytotoxicity by MTT assay, HEK 293; format: cell-based, human; conditions: human, HEK 293 cells, read-out: % cytotoxicity (100 − % cell survival) of HEK 293 cell line
How it was run: (§1)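 RPMI-1640, 10 % newborn calf serum; ~10,000 cells/well, 24 h attachment; compound 72 h, 37 °C, 5 % CO2; MTT 4 h; propanol; A490.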

[2] = tested on: BT474 (breast cancer cell line); assay: In vitro cytotoxicity by MTT assay, BT474; format: cell-based; conditions: Homo sapiens, 72 h, read-out: % cytotoxicity (100 − % cell survival) of BT474 cell line
How it was run: as §1

[3] = In vitro cytotoxicity by MTT assay, NCI-H226; format: cell-based; conditions: human, NCI-H226 lung cancer cells, 0.015 μM, read-out: % Cytotoxicity (100 − % cell survival) of NCI-H226 cell line
How it was run: as §1

[4] = tested on: NCI-H226 (lung cancer cell line); assay: In vitro cytotoxicity by MTT assay, NCI-H226; format: cell-based; conditions: Homo sapiens, 72 h, read-out: % Cytotoxicity (100 − % cell survival) of NCI-H226 cell line
How it was run: as §1

[5] = tested on: HEK 293, M468 and NCI-H226; assay: In vitro cytotoxicity by MTT assay, summary over all cell lines; format: cell-based; conditions: on all cell lines
Procedure: The cancer cell line cultures of HEK 293 ([…]), BT474 (breast cancer cell line) and NCI-H226 (lung cancer) were obtained from Pasteur Institute of India, Coonoor, India, and were cultured in RPMI-1640 and 10 % heat-[…] New born calf serum with antibiotics [penicillin ([…]), streptomycin (100 μg/mL) and amphotericin B (25 μg/mL)]. The cells were maintained at 37 °C in a humidified atmosphere with 5 % CO2 and were subcultured twice a week.
The monolayer cell culture (100 μL) was trypsinized, and the cell count was adjusted to […] using medium containing 10 % new born calf serum. To each well of the 96-well microtitre plate, the diluted cell suspension (approximately 10,000 cells) (0.1 mL) was added and kept for 24 h in incubator at 37 °C in 5 % CO2 atmosphere for cell monolayer formation. After 24 h, when a partial monolayer was formed at the bottom of the well, the supernatant was flicked off, the monolayer was washed once, and different drugs, i.e. synthesized compounds (100 μL), were added to the cells in microtitre plates. The plates were then incubated at 37 °C for 3 days in 5 % CO2 atmosphere, and microscopic examination was carried out and observations recorded every 24 h. After 72 h, the sample solution in the wells was flicked off; MTT dye ([…]) was added to each well; plates were gently shaken and incubated for 4 h at 37 °C in 5 % CO2 incubator. The supernatant was removed and propanol (50 μL) was added; the plates were gently shaken to solubilize the formed formazan. The absorbance was measured using a microplate reader at a wavelength of 490 nm (Edmondson et al., [1988]; Prasad et al., [2005]; Chiruvella et al., [2008]; Chang et al., [2007]).

[6] = Lipid peroxidation inhibitory activity (egg lecithin liposomes, TBA); format: biochemical; conditions: Conc. ± SD; standard ascorbic acid; read-out: IC50 inhibitory concentration, Lipid peroxidation
Procedure: Egg lecithin (3 mg/mL phosphate buffer, pH 7.4) was sonicated in an ultrasonic sonicator for 10 min to ensure proper liposome formation. Test samples or standard, ascorbic acid (100 μL) of different concentrations (10, 20, 30, 40 50 and 100 μg/mL) was added to liposome mixture (1 mL); the control was without test sample. Lipid peroxidation was induced by adding ferric chloride (10 μL, 400 mM) and L-ascorbic acid (10 μL, 200 mM). After incubation for 1 h at 37 °C, the reaction was stopped by adding hydrochloric acid (2 mL, 0.25 N) containing trichloroacetic acid (150 mg/mL), thiobarbituric acid (3.75 mg/mL) and butylated hydroxy anisole (0.50 mg/mL). The reaction mixture was subsequently boiled for 15 min, cooled and centrifuged at 1,000 rpm for 15 min, and the absorbance of the supernatant was measured at 532 nm (Duh and Yen, [1997]). The % inhibition at different concentrations was calculated by the following formula %Inhibition=[1-(Vt/Vc)]×100 where V t = mean absorption of test compound, V c = mean absorption of control.
The IC50 (nM/mL) value was derived from the % inhibition at different concentrations.

[7] = DPPH radical scavenging activity; format: biochemical; conditions: Conc. ± SD; standard ascorbic acid; read-out: IC50 inhibitory concentration, DPPH radical
Procedure: Compounds of SC series were evaluated for their in vitro free radical scavenging activities by 2,2-diphenyl-1-picrylhydrazyl (DPPH) assay method (Blois, [1958]; Shishoo et al., [1999]; Chhajed et al., [2007]). To determine the free radical scavenging activity, a method based on the reduction of a methanolic solution of the coloured DPPH radical was used. To a set of test tubes containing methanol (3 mL), DPPH reagent (2 mg/mL) (50 μL) was added. The initial absorbance was measured. To these test tubes, methanolic solution of different test solutions (1 mg/mL) were added (10–50 μL). Ascorbic acid (0.5 mg/mL) was also added in the concentration of 10, 20, 30, 40, 50 and 100 μL. After 20 min, absorbance was recorded at 516 nm. The experiment was performed in triplicate. The percentage reduction in absorbance was calculated from the initial and final absorbance of each solution (Dhar and Taploo, [1982]).

[8] = Superoxide anion radical scavenging (NBT/NADH/PMS); format: biochemical; conditions: Conc. ± SD; standard catechin; read-out: IC50 inhibitory concentration, Superoxide anion
Procedure: Measurement of superoxide anion scavenging activity of the synthesized compound was taken based on the method described by Nishimiki et al. ([1972]) and slightly modified. […] The reaction mixture was incubated at 25 °C for 5 min, and the absorbance at 560 nm was measured against blank samples. Catechin was used as reference compound. All the experiments were performed in triplicate, and the results were averaged. The percentage of inhibition was determined by comparing the results of control and test samples. The IC50 (nM/mL) value are depicted in Table 1.

[9] = Total antioxidant activity (ABTS radical cation scavenging); format: biochemical; conditions: Conc. ± SD; three independent experiments in duplicate; standard trolox; read-out: IC50 inhibitory concentration, ABTS^+ radical
Procedure: The ability of the test sample to scavenge 2,2′-azinobis-(3-ethylbenzothiazoline-6-sulphonic acid) (ABTS^·+) radical cation was compared with 6-hydroxy-2,5,7,8-tetramethylchroman-2-carboxylic acid (trolox) standard (Chang et al., [2007]; Erel, [2004]; Re et al., [1999]). The ABTS^·+ radical cation was pregenerated by mixing ABTS stock solution (7 mM) with potassium persulphate (2.45 mM) (final concentration) and incubating for 12–16 h in the dark at room temperature until the reaction was complete and the absorbance was stable. The absorbance of the ABTS^·+ solution was equilibrated to 0.70 (±0.02) by diluting with water at room temperature, then 1 mL of solution was mixed with 10 μL of the test sample (0.05–10 mg/mL), and the absorbance was measured at 734 nm after 6 min. All experiments were repeated three times. The percentage inhibition of absorbance was calculated and plotted as a function of the concentration of standard and sample to determine the trolox equivalent antioxidant concentration (TEAC). To calculate the TEAC, the gradient of the plot for the sample was divided by the gradient of the plot for trolox. The IC50 inhibitory concentration (nM/mL) values of tested compounds are depicted in Table 1. The ABTS^·+ radical scavenging activity of the samples was expressed as S%=[(Acontrol-Asample)/Acontrol]×100 where A control is the absorbance of the blank control (ABTS^·+ solution without test sample), and A sample is the absorbance of the test sample.

Compound `O=C(NS(=O)(=O)c1nnc(N=Cc2ccco2)s1)c1ccccc1` [Compound 9j, N-({5-[(Furan-2-ylmethylidene)amino]-1,3,4-thiadiazol-2-yl}sulfonyl)benzamide] has a cytotoxicity at 72 h, 0.005 µM ([1]; 0.005 μM) of 31.4%, a cytotoxicity at 72 h, 0.015 µM ([1]; 0.015 μM) of 32.8% and a cytotoxicity at 72 h, 0.045 µM ([1]; 0.045 μM) of 33.7%. For the same compound, the cytotoxicity at 72 h, 0.13 µM ([1]; 0.13 μM) was 34.3%, the cytotoxicity at 72 h, 0.41 µM ([1]; 0.41 μM) was 34.5% and the cytotoxicity at 72 h, 1.23 µM ([1]; 1.23 μM) was 35%. For the same compound, the cytotoxicity at 72 h, 3.7 µM ([1]; 3.7 μM) was 35.3%, the cytotoxicity at 72 h, 11.11 µM ([1]; 11.11 μM) was 36.1% and the cytotoxicity at 72 h, 33.33 µM ([1]; 33.33 μM) was 36.9%. The cytotoxicity at 72 h, 100 µM ([1]; 100 μM) was 38.9%, the cytotoxicity at 0.005 µM ([2]; BT-474, 0.005 μM) was 30.4% and the cytotoxicity at 0.015 µM ([2]; BT-474, 0.015 μM) was 34.6%. It also gave a cytotoxicity at 0.045 µM ([2]; BT-474, 0.045 μM) of 37.4%, a cytotoxicity at 0.13 µM ([2]; BT-474, 0.13 μM) of 40.1% and a cytotoxicity at 0.41 µM ([2]; BT-474, 0.41 μM) of 43.6%. It also gave a cytotoxicity at 1.23 µM ([2]; BT-474, 1.23 μM) of 45.1%, a cytotoxicity at 3.7 µM ([2]; BT-474, 3.7 μM) of 49.3% and a cytotoxicity at 11.11 µM ([2]; BT-474, 11.11 μM) of 52.1%. The cytotoxicity at 33.33 µM ([2]; BT-474, 33.33 μM) was 56.9%, the cytotoxicity at 100 µM ([2]; BT-474, 100 μM) was 61.4% and the cytotoxicity at 72 h, 0.015 µM [3] was 33.2%. It also gave a cytotoxicity at 0.005 µM ([4]; NCI-H226, 0.005 μM) of 33%, a cytotoxicity at 0.045 µM ([4]; NCI-H226, 0.045 μM) of 34.6% and a cytotoxicity at 0.13 µM ([4]; NCI-H226, 0.13 μM) of 35.3%. For the same compound, the cytotoxicity at 0.41 µM ([4]; NCI-H226, 0.41 μM) was 36.1%, the cytotoxicity at 1.23 µM ([4]; NCI-H226, 1.23 μM) was 37% and the cytotoxicity at 3.7 µM ([4]; NCI-H226, 3.7 μM) was 39.1%. It also gave a cytotoxicity at 11.11 µM ([4]; NCI-H226, 11.11 μM) of 42.7%, a cytotoxicity at 33.33 µM ([4]; NCI-H226, 33.33 μM) of 45.4% and a cytotoxicity at 100 µM ([4]; NCI-H226, 100 μM) of 52.4%. The “cytotoxic activity compared with all synthesized compounds” value [5] was “more potent” and the melting point was 261 to 263 °C.
In the case of `O=C1O[C@H]([C@@H](O)CO)C(O)=C1O` [ascorbic acid, reference compound], the IC50 [6] is reported as 150 ± 16.9 µM and the IC50 [7] is reported as 187 ± 35.4 µM.
Compound `Oc1cc(O)c2c(c1)O[C@H](c1ccc(O)c(O)c1)[C@@H](O)C2` [catechin, reference compound] has an IC50 [8] of 171 ± 9.1 µM.
`Cc1c(C)c2c(c(C)c1O)CCC(C)(C(=O)O)O2` (stereo not drawn) [trolox, 6-hydroxy-2,5,7,8-tetramethylchroman-2-carboxylic acid, reference compound] gave an IC50 [9] of 84.5 ± 9.39 µM.
